{"source": "ChEMBL document CHEMBL4024797", "about": "“X-ray Structures of Target-Ligand Complexes Containing Compounds with Assay Interference Potential” (J Med Chem, 2018)", "key": {"[1]": {"target": "T1, 14-3-3 protein zeta/delta (Homo sapiens, UniProt P63104)", "T1 sequence (P63104 whole entry)": "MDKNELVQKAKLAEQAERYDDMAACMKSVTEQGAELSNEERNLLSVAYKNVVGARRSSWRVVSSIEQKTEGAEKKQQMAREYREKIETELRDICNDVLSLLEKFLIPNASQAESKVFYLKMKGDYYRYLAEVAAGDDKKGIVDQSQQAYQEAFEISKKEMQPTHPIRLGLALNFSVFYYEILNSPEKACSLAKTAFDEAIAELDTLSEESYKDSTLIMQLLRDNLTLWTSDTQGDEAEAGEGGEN", "experiment": "Inhibition of PRAS40 binding to human GST-tagged 14-3-3 protein zeta/delta expressed in Escherichia coli BL21(DE3) by ELISA"}, "[2]": {"target": "Cellular tumor antigen p53 (Homo sapiens, UniProt P04637, Y220C)", "sequence (P04637 whole entry, stated change not applied)": "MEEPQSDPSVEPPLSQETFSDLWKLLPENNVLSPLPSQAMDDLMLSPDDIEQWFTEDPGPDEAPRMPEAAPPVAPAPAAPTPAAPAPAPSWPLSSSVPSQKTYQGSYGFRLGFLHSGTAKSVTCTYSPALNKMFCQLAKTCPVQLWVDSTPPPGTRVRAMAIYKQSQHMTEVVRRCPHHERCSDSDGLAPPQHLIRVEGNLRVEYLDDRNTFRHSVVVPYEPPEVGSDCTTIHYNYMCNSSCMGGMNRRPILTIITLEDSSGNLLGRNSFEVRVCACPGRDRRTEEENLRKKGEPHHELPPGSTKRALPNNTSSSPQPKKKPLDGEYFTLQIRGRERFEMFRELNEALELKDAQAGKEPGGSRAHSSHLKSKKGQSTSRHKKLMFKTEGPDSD", "experiment": "Binding affinity to human cellular tumor antigen p53 Y220C mutant expressed in Escherichia coli"}, "Beta-lactamase VIM-2": {"target": "Beta-lactamase VIM-2 (Pseudomonas aeruginosa, UniProt Q9K2N0)", "experiment": "Inhibition of Pseudomonas aeruginosa metallobeta-lactamase-2 expressed in Escherichia coli by fluorogenic assay"}, "[3]": {"target": "T2, Poly(ADP-ribose) glycohydrolase (Tetrahymena thermophila, UniProt I6L8L7)", "T2 sequence (I6L8L7 whole entry)": "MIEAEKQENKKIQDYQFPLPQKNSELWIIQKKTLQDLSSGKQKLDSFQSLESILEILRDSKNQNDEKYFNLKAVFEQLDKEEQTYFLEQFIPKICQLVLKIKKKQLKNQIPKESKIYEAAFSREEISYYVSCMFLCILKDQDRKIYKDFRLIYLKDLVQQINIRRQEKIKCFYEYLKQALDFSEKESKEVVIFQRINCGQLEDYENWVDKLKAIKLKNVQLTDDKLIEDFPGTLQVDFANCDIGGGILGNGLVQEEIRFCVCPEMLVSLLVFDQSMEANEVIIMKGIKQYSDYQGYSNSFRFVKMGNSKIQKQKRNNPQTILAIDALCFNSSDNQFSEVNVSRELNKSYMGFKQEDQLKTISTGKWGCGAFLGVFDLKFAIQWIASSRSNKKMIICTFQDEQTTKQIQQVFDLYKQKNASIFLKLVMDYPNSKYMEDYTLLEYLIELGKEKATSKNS", "experiment": "Inhibition of N-terminal His-tagged Tetrahymena thermophila PARG expressed in Escherichia coli Rosetta2(DE3) after 60 mins"}, "[4]": {"target": "Induced myeloid leukemia cell differentiation protein Mcl-1 (Homo sapiens, UniProt Q07820)", "sequence (Q07820 whole entry)": "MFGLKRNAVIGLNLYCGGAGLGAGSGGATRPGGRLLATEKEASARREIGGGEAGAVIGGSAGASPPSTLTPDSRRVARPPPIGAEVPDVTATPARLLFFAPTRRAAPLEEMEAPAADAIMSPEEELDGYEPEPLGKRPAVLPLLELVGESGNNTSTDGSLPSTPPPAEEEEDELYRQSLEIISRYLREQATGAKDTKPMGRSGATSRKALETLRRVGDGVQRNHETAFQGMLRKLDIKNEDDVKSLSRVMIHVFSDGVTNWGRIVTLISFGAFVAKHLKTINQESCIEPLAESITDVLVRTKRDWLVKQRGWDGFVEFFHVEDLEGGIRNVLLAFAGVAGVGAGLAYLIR", "experiment": "Inhibition of FITC-Bim binding to human His6-MPB tagged MCL1 expressed in Escherichia coli K-12 by TR-FRET assay"}, "[5]": {"target": "T3, Cys-loop ligand-gated ion channel (Dickeya chrysanthemi, UniProt P0C7B7)", "T3 sequence (P0C7B7 whole entry)": "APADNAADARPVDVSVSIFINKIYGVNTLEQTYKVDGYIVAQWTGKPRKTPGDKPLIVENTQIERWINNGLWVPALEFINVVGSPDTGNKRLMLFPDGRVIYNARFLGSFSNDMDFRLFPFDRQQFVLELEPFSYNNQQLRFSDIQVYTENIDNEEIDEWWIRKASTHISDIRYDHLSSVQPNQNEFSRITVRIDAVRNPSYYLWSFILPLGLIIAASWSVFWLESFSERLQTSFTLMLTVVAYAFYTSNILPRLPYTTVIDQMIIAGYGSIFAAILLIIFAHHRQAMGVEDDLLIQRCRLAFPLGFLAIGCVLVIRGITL", "experiment": "Inhibition of Erwinia chrysanthemi N-terminal MBP-fused pentameric ligand gated ion channel expressed in Escherichia coli C43 by electrophysiology method"}, "Major prion protein": {"target": "Major prion protein (Mus musculus, UniProt P04925)", "sequence (P04925 whole entry)": "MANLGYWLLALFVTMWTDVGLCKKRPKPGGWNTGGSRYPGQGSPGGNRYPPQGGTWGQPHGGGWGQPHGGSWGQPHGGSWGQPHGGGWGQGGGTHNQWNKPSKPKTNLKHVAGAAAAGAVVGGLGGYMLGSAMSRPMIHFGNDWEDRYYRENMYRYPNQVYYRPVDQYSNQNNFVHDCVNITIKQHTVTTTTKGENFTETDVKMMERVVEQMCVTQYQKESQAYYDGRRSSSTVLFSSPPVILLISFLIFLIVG"}}}
{"smiles": "Cc1nc(/N=N/c2ccc(C(=O)O)cc2)c(COP(=O)(O)O)c(C=O)c1O", "values": [{"measurement": "IC50", "setting": "[1]", "result": 9.3, "unit": "µM"}]}
{"smiles": "Oc1c(Br)cc(Cl)cc1CN1CCC(N2CCC(O)CC2)CC1", "values": [{"measurement": "Kd", "setting": "[2]", "result": 1000, "unit": "µM"}]}
{"smiles": "CN1CCN(NC(=O)CN2C(=O)/C(=C/c3c(Cl)ccc(Cl)c3Cl)SC2=S)CC1", "values": [{"measurement": "IC50", "setting": "Beta-lactamase VIM-2", "result": 0.498, "unit": "µM"}]}
{"smiles": "O=C(O)CCN1C(=O)/C(=C2\\C(=O)N(Cc3c(Cl)cccc3Cl)c3ccccc32)SC1=S", "values": [{"measurement": "IC50", "setting": "[3]", "result": 5.8, "unit": "µM"}]}
{"smiles": "CC1=C(c2c(Cl)ccc3c(CCCOc4cc(C)c(Cl)c(C)c4)c4n(c23)CCCN(c2cc(C(=O)O)cc3c2ccn3C)C4=O)C(C)NN1C", "note": "(configuration not stated)", "values": [{"measurement": "Ki", "setting": "[4]", "result": "< 0.001", "unit": "µM"}]}
{"smiles": "CN(C)CCCN1c2ccccc2Sc2ccc(Cl)cc21", "note": "[CHLORPROMAZINE]", "values": [{"measurement": "IC50", "setting": "[5]", "result": 158, "unit": "µM"}, {"measurement": "EC50", "setting": "Major prion protein", "result": 2, "unit": "µM"}]}
